Reference: BindingDB's records for doi:10.1021/jm030452x (University of Arizona, 2004)

molecular target: Melanocyte-stimulating hormone receptor (Rana pipiens); experiment: Inhibition of 1 nM alpha melanocortin stimulating hormone (MSH) from frog skin

C[C@@H](O)[C@H](NC(=O)[C@H]1NC(=O)[C@H](Cc2c[nH]c3ccccc23)NC(=O)[C@H](CCCN=C(N)N)NC(=O)[C@@H](Cc2c[nH]c3ccccc23)NC(=O)[C@H](Cc2ccc(O)cc2)NC(=O)[C@@H](NC(=O)[C@H](N)Cc2ccccc2)CSSC1(C)C)C(N)=O [1N-(1-carbamoyl-2-hydroxypropyl)-15-[3-amino(imino)methylaminopropyl]-6-(1-amino-2-phenylethylcarboxamido)-9-(4-hydroxybenzyl)-12,18-di(1H-3-indolylmethyl)-2,2-dimethyl-7,10,13,16,19-pentaoxo-3,4-dithia-8,11,14,17,20-pentaazacycloicosane-1-carboxami] and C[C@@H](O)[C@H](NC(=O)[C@H]1NC(=O)[C@H](Cc2c[nH]c3ccccc23)NC(=O)[C@H](CCCN=C(N)N)NC(=O)[C@@H](Cc2c[nH]c3ccccc23)NC(=O)[C@H](Cc2ccccc2)NC(=O)[C@@H](NC(=O)[C@H](N)Cc2ccccc2)CSSC1(C)C)C(N)=O [1N-(1-carbamoyl-2-hydroxypropyl)-15-[3-amino(imino)methylaminopropyl]-6-(1-amino-2-phenylethylcarboxamido)-9-benzyl-12,18-di(1H-3-indolylmethyl)-2,2-dimethyl-7,10,13,16,19-pentaoxo-3,4-dithia-8,11,14,17,20-pentaazacycloicosane-1-carboxamide] are the same in IC50: 1 µM for the first, 1 µM for the second.

First: C[C@@H](O)[C@H](NC(=O)[C@H]1NC(=O)[C@H](CO)NC(=O)[C@H](CCCNC(=N)N)NC(=O)[C@@H](Cc2c[nH]c3ccccc23)NC(=O)[C@H](Cc2ccc(O)cc2)NC(=O)[C@@H](NC(=O)[C@H](N)Cc2ccccc2)CSSC1(C)C)C(N)=O [1N-(1-carbamoyl-2-hydroxypropyl)-15-[3-amino(imino)methylaminopropyl]-6-(1-amino-2-phenylethylcarboxamido)-9-(4-hydroxybenzyl)-18-hydroxymethyl-12-(1H-3-indolylmethyl)-2,2-dimethyl-7,10,13,16,19-pentaoxo-3,4-dithia-8,11,14,17,20-pentaazacycloicosane]
Second: C[C@@H](O)[C@H](NC(=O)[C@H]1NC(=O)[C@H]([C@@H](C)O)NC(=O)[C@H](CCCNC(=N)N)NC(=O)[C@@H](Cc2c[nH]c3ccccc23)NC(=O)[C@H](Cc2ccc(I)cc2)NC(=O)[C@@H](NC(=O)[C@H](N)Cc2ccccc2)CSSC1(C)C)C(N)=O [1N-(1-carbamoyl-2-hydroxypropyl)-15-[3-amino(imino)methylaminopropyl]-6-(1-amino-2-phenylethylcarboxamido)-18-(1-hydroxyethyl)-12-(1H-3-indolylmethyl)-9-(4-iodobenzyl)-2,2-dimethyl-7,10,13,16,19-pentaoxo-3,4-dithia-8,11,14,17,20-pentaazacycloicosane]
The IC50 of the first is 10-fold higher: 1 µM for the first, 0.1 µM for the second. The second is the more potent here.

For C[C@H](O)[C@@H](NC(=O)[C@H]1CSSC[C@H](NC(=O)[C@@H](N)Cc2ccccc2)C(=O)N[C@@H](Cc2c[nH]cn2)C(=O)N2Cc3ccccc3C[C@H]2C(=O)N[C@@H](CCCN=C(N)N)C(=O)N[C@H](Cc2c[nH]c3ccccc23)C(=O)N1)C(N)=O [(2R,3S)-2-{[(3S,6R,9S,14R,17S)-14-[(2S)-2-amino-3-phenylpropanamido]-3-{3-[(diaminomethylidene)amino]propyl}-17-(1H-imidazol-4-ylmethyl)-6-(1H-indol-3-ylmethyl)-1,4,7,15,18-pentaoxo-1H,2H,3H,4H,5H,6H,7H,8H,9H,10H,13H,14H,15H,16H,17H,18H,20H,25H,25aH-isoquinolino[3,2-m]1,2-dithia-5,8,11,14,17-pentaazacycloicosan-9-yl]formamido}-3-hydroxybutanamide], the IC50 was 1 µM.

molecular target: Melanocortin receptor 1 (Rana pipiens); experiment: Effective concentration required for maximum agonist response at melanocortin 1 receptor from frog skin.

Compared with C[C@@H](O)[C@H](NC(=O)[C@@H]1CCCCNC(=O)C[C@H](NC(=O)[C@H](N)Cc2ccccc2)C(=O)N[C@@H](Cc2cnc[nH]2)C(=O)N[C@H](Cc2ccccc2)C(=O)N[C@@H](CCCNC(=N)N)C(=O)N[C@@H](Cc2c[nH]c3ccccc23)C(=O)N1)C(N)=O [1N-(1-carbamoyl-2-hydroxypropyl)-7-[3-amino(imino)methylaminopropyl]-16-(1-amino-2-phenylethylcarboxamido)-10-benzyl-13-(1H-5-imidazolylmethyl)-4-(1H-3-indolylmethyl)-3,6,9,12,15,18-hexaoxo-2,5,8,11,14,19-hexaazacyclotricosane-1-carboxamide], C[C@@H](O)[C@H](NC(=O)[C@@H]1CCSSC[C@H](NC(=O)[C@H](N)Cc2ccccc2)C(=O)N[C@@H](Cc2cnc[nH]2)C(=O)N[C@H](Cc2ccccc2)C(=O)N[C@@H](CCCNC(=N)N)C(=O)N[C@@H](Cc2c[nH]c3ccccc23)C(=O)N1)C(N)=O [1N-(1-carbamoyl-2-hydroxypropyl)-16-[3-amino(imino)methylaminopropyl]-7-(1-amino-2-phenylethylcarboxamido)-13-benzyl-10-(1H-5-imidazolylmethyl)-19-(1H-3-indolylmethyl)-8,11,14,17,20-pentaoxo-4,5-dithia-9,12,15,18,21-pentaazacyclohenicosane-1-carb] is 10000-fold higher in EC50: 0.0001 µM for the first, 1 µM for the second.

Going from C[C@@H](O)[C@H](NC(=O)[C@@H]1CSSC[C@H](NC(=O)[C@H](N)Cc2ccccc2)C(=O)N[C@@H](Cc2cnc[nH]2)C(=O)N[C@@H](Cc2cccc3ccccc23)C(=O)N[C@@H](CCCNC(=N)N)C(=O)N[C@H](Cc2c[nH]c3ccccc23)C(=O)N1)C(N)=O [1N-(1-carbamoyl-2-hydroxypropyl)-15-[3-amino(imino)methylaminopropyl]-6-(1-amino-2-phenylethylcarboxamido)-9-(1H-5-imidazolylmethyl)-18-(1H-3-indolylmethyl)-12-(1-naphthylmethyl)-7,10,13,16,19-pentaoxo-3,4-dithia-8,11,14,17,20-pentaazacycloicosan] to C[C@@H](O)[C@H](NC(=O)[C@H]1CSSC[C@H](NC(=O)[C@@H](N)Cc2ccccc2)C(=O)N[C@@H](Cc2cnc[nH]2)C(=O)N[C@H](Cc2ccccc2)C(=O)N[C@@H](CCCNC(=N)N)C(=O)N[C@H](Cc2c[nH]c3ccccc23)C(=O)N1)C(N)=O [1N-(1-carbamoyl-2-hydroxypropyl)-15-[3-amino(imino)methylaminopropyl]-6-(1-amino-2-phenylethylcarboxamido)-12-benzyl-9-(1H-5-imidazolylmethyl)-18-(1H-3-indolylmethyl)-7,10,13,16,19-pentaoxo-3,4-dithia-8,11,14,17,20-pentaazacycloicosane-1-carboxam], the EC50 falls from 5 µM to 3 µM (1.7-fold). The second is the more potent here.

First: C[C@H](O)[C@@H](NC(=O)[C@H]1CSSC[C@H](NC(=O)[C@H](N)Cc2ccccc2)C(=O)N[C@@H](Cc2cnc[nH]2)C(=O)N[C@@H](Cc2ccc(Cl)cc2)C(=O)N[C@@H](CCCNC(=N)N)C(=O)N[C@H](Cc2c[nH]c3ccccc23)C(=O)N1)C(N)=O [1N-(1-carbamoyl-2-hydroxypropyl)-15-[3-amino(imino)methylaminopropyl]-6-(1-amino-2-phenylethylcarboxamido)-12-(4-chlorobenzyl)-9-(1H-5-imidazolylmethyl)-18-(1H-3-indolylmethyl)-7,10,13,16,19-pentaoxo-3,4-dithia-8,11,14,17,20-pentaazacycloicosane-]
Second: C[C@@H](O)[C@H](NC(=O)[C@@H]1CSSC[C@H](NC(=O)[C@H](N)Cc2ccccc2)C(=O)N[C@@H](Cc2cnc[nH]2)C(=O)N[C@@H](Cc2ccc(F)cc2)C(=O)N[C@@H](CCCNC(=N)N)C(=O)N[C@H](Cc2c[nH]c3ccccc23)C(=O)N1)C(N)=O [1N-(1-carbamoyl-2-hydroxypropyl)-15-[3-amino(imino)methylaminopropyl]-6-(1-amino-2-phenylethylcarboxamido)-12-(4-fluorobenzyl)-9-(1H-5-imidazolylmethyl)-18-(1H-3-indolylmethyl)-7,10,13,16,19-pentaoxo-3,4-dithia-8,11,14,17,20-pentaazacycloicosane-]
The EC50 of the first is 33-fold lower: 0.03 µM for the first, 1 µM for the second. The first is the more potent here.

First: C[C@@H](O)[C@H](NC(=O)[C@H]1CSSC[C@H](NC(=O)[C@H](N)Cc2ccccc2)C(=O)N[C@@H](Cc2cnc[nH]2)C(=O)N[C@@H](Cc2ccccc2)C(=O)N[C@@H](CCCNC(=N)N)C(=O)N[C@H](Cc2c[nH]c3ccccc23)C(=O)N1)C(N)=O [1N-(1-carbamoyl-2-hydroxypropyl)-15-[3-amino(imino)methylaminopropyl]-6-(1-amino-2-phenylethylcarboxamido)-12-benzyl-9-(1H-5-imidazolylmethyl)-18-(1H-3-indolylmethyl)-7,10,13,16,19-pentaoxo-3,4-dithia-8,11,14,17,20-pentaazacycloicosane-1-carboxam]
Second: C[C@@H](O)[C@H](NC(=O)[C@@H]1CSSCC[C@H](NC(=O)[C@H](N)Cc2ccccc2)C(=O)N[C@@H](Cc2cnc[nH]2)C(=O)N[C@H](Cc2ccccc2)C(=O)N[C@@H](CCCNC(=N)N)C(=O)N[C@@H](Cc2c[nH]c3ccccc23)C(=O)N1)C(N)=O [H-D-Phe-c[Hcy-His-D-Phe-Arg-Trp-Cys]-Thr-NH2]
The EC50 of the first is 33-fold higher: 0.01 µM for the first, 0.0003 µM for the second. The second is the more potent here.

With C[C@@H](O)[C@H](NC(=O)[C@H]1NC(=O)[C@H](Cc2c[nH]c3ccccc23)NC(=O)[C@H](CCCNC(=N)N)NC(=O)[C@@H](Cc2ccccc2)NC(=O)[C@H](Cc2cnc[nH]2)NC(=O)[C@@H](NC(=O)[C@H](N)Cc2ccccc2)CSSC1(C)C)C(N)=O [H-D-Phe-c[Cys-His-D-Phe-Arg-Trp-Pen]-Thr-NH2] the EC50 was 0.1 µM.
